In patent US11142526B2, “Spirocycle compounds and methods of making and using same” (H. Lundbeck A/S, priority 2017, dated 2021):
Where two headings read alike, the source gives them in different places.

Experiments:
MAGL [1] = molecular target: MAGL (Homo sapiens (Human), UniProt Q99685); assay: In vitro competitive activity-based protein profiling (gel-based, FP-Rh or HT-01 probe); type: biochemical
Description: In Vitro Competitive Activity-Based Protein Profiling.
Proteomes (human prefrontal cortex or cell membrane fractions) (50 μL, 1.0 mg/mL total protein concentration) were preincubated with varying concentrations of inhibitors at 37° C. After 30 min, FP-Rh or HT-01 (1.0 μL, 50 μM in DMSO) was added and the mixture was incubated for another 30 min at room temperature. Reactions were quenched with SDS loading buffer (15 μL—4×) and run on SDS-PAGE.

MAGL [2] = molecular target: MAGL (Mus musculus (Mouse), UniProt O35678); assay: In vitro competitive activity-based protein profiling, mouse brain proteome; type: biochemical; conditions: for inhibition at 1 µM: mouse; for IC50: mouse brain
[3] = human PC3, read-out: MAGL % Inhibition at 1 μM (human PC3)
[4] = human PFC (prefrontal cortex), read-out: MAGL % Inhibition at 1 μM (human PFC)
[5] = human PC3, read-out: MAGL Human PC3 (IC50)
[6] = human PFC (prefrontal cortex), read-out: MAGL Human PFC (IC50)

Sequence of MAGL (Homo sapiens (Human), UniProt Q99685) (Q99685 whole entry): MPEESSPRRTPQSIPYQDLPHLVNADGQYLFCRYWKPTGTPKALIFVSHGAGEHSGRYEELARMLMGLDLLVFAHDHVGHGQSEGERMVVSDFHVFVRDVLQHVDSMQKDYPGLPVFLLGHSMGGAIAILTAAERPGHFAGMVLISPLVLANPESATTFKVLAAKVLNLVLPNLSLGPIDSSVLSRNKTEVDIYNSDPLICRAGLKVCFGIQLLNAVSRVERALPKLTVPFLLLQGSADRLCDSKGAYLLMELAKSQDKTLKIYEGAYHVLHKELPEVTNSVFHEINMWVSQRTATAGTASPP
Sequence of MAGL (Mus musculus (Mouse), UniProt O35678) (O35678 whole entry): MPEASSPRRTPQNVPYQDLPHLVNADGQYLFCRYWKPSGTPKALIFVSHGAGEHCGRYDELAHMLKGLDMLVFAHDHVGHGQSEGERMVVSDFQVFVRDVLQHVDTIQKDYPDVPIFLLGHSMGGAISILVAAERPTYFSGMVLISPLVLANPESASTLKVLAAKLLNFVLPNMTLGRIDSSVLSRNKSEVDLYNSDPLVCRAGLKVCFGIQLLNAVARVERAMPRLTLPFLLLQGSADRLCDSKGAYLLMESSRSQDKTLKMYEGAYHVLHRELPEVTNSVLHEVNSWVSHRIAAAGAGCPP

Structure (SMILES)	inhibition at 1 µM (MAGL [1]; [3]) [%]	inhibition at 1 µM (MAGL [1]; [4]) [%]	inhibition at 1 µM (MAGL [2]) [%]	IC50 (MAGL [1]; [5]) [nM]	IC50 (MAGL [1]; [6]) [nM]	IC50 (MAGL [2]) [nM]
CC(C)N1CCn2c(nnc2C(=O)NC2(C)CCN(C(=O)OC(C(F)(F)F)C(F)(F)F)CC2)C1 [Example 36, 1,1,1,3,3,3-Hexafluoropropan-2-yl 4-(7-isopropyl-5,6,7,8-tetrahydro-[1,2,4]triazolo[4,3-a]pyrazine-3-carboxamido)-4-methylpiperidine-1-carboxylate]	> 75	> 75	> 75	< 100	–	–
CC(C)N1CCn2cc(C(=O)N(C)C3(C)CCN(C(=O)OC(C(F)(F)F)C(F)(F)F)CC3)nc2C1 [Example 22, 1,1,1,3,3,3-Hexafluoropropan-2-yl 4-(7-isopropyl-N-methyl-5,6,7,8-tetrahydroimidazo[1,2-a]pyrazine-2-carboxamido)-4-methylpiperidine-1-carboxylate]	> 75	> 75	> 75	< 100	–	–
CN1CCN(c2ncncc2C(=O)N2CCCC23CCN(C(=O)OC(C(F)(F)F)C(F)(F)F)CC3)CC1 [Example 136, 1,1,1,3,3,3-Hexafluoropropan-2-yl 1-(4-(4-methylpiperazin-1-yl)pyrimidine-5-carbonyl)-1,8-diazaspiro [4.5]decane-8-carboxylate]	–	25 to 75	< 25	–	–	–
CN(C(=O)c1nnc2n1CCNC2)C1(C)CCN(C(=O)OC(C(F)(F)F)C(F)(F)F)CC1 [Example 210, 1,1,1,3,3,3-Hexafluoropropan-2-yl 4-methyl-4-(N-methyl-5,6,7,8-tetrahydro-[1,2,4]triazolo [4,3-a]pyrazine-3-carboxamido) piperidine-1-carboxylate]	25 to 75	> 75	25 to 75	–	–	–
COc1cnc(C(F)(F)C(=O)N(C)C2(C)CCN(C(=O)OC(C(F)(F)F)C(F)(F)F)CC2)cn1 [Example 199, 1,1,1,3,3,3-Hexafluoropropan-2-yl 4-(2,2-difluoro-2-(5-methoxypyrazin-2-yl)-N-methylacetamido)-4-methylpiperidine-1-carboxylate]	> 75	> 75	> 75	–	< 100	–
O=C(OC(C(F)(F)F)C(F)(F)F)N1CCC2(CCCN2Cc2cnc(N3CCNCC3)s2)CC1 [Example 4, 1,1,1,3,3,3-hexafluoropropan-2-yl 1-((2-(piperazin-1-yl)thiazol-5-yl)methyl)-1,8-diazaspiro[4.5]decane-8-carboxylate]	–	> 75	> 75	< 100	–	–
COc1ncc(CN2CCCC23CCN(C(=O)OC(C(F)(F)F)C(F)(F)F)CC3)s1 [Example 138, 1,1,1,3,3,3-Hexafluoropropan-2-yl 1-((2-methoxythiazol-5-yl)methyl)-1,8-diazaspiro[4.5] decane-8-carboxylate]	–	> 75	> 75	< 100	–	–
O=C(OC(C(F)(F)F)C(F)(F)F)N1CCC2(CCCN2Cc2cc3cc(Cl)cc(Cl)c3[nH]2)CC1 [Example 110, 1,1,1,3,3,3-Hexafluoropropan-2-yl 1-((5,7-dichloro-1H-indol-2-yl)methyl)-1,8-diazaspiro[4.5] decane-8-carboxylate]	–	–	> 75	–	< 100	< 100

Second part, the molecule after the results:

inhibition at 1 µM (MAGL [1]; [3]) [%]	inhibition at 1 µM (MAGL [1]; [4]) [%]	inhibition at 1 µM (MAGL [2]) [%]	IC50 (MAGL [1]; [5]) [nM]	IC50 (MAGL [1]; [6]) [nM]	IC50 (MAGL [2]) [nM]	Structure (SMILES)
> 75	> 75	< 25	–	–	–	O=C(OC(C(F)(F)F)C(F)(F)F)N1CCC2(CCCN2C(=O)Cc2ncccn2)CC1 [Example 195, 1,1,1,3,3,3-Hexafluoropropan-2-yl 1-(2-(pyrimidin-2-yl)acetyl)-1,8-diazaspiro[4.5] decane-8-carboxylate]
> 75	> 75	> 75	–	–	–	O=C(OC(C(F)(F)F)C(F)(F)F)N1CCC2(CCCN2C(=O)c2cc3nc(C(F)F)cc(C(F)F)n3n2)CC1 [Example 166, 1,1,1,3,3,3-Hexafluoropropan-2-yl 1-(5,7-bis(difluoromethyl)pyrazolo [1,5-a]pyrimidine-2-carbonyl)-1,8-diazaspiro [4.5]decane-8-carboxylate]
–	> 75	> 75	–	< 100	–	Cc1ccc2sc(C(=O)N3CCCC34CCN(C(=O)OC(C(F)(F)F)C(F)(F)F)CC4)cc2c1 [Example 17, 1,1,1,3,3,3-Hexafluoropropan-2-yl 1-(5-methylbenzo[b]thiophene-2-carbonyl)-1,8-diazaspiro[4.5]decane-8-carboxylate]
> 75	> 75	> 75	< 100	–	–	O=C(OC(C(F)(F)F)C(F)(F)F)N1CCC2(CCCN2C(=O)C2(c3nccc(C(F)(F)F)n3)CC2)CC1 [Example 202, 1,1,1,3,3,3-Hexafluoropropan-2-yl 1-(1-(4-(trifluoromethyl)pyrimidin-2-yl)cyclopropane-1-carbonyl)-1,8-diazaspiro [4.5]decane-8-carboxylate]
–	–	> 75	< 100	–	100 to 1000	O=C(OC(C(F)(F)F)C(F)(F)F)N1CCC2(CCCN2C(=O)c2ccc3nccn3c2)CC1 [Example 85, 1,1,1,3,3,3-Hexafluoropropan-2-yl 1-(imidazo[1,2-a]pyridine-6-carbonyl)-1,8-diazaspiro[4.5] decane-8-carboxylate]
> 75	> 75	> 75	–	–	–	O=C(OC(C(F)(F)F)C(F)(F)F)N1CCC2(CCCN2C(=O)C(F)(F)c2ncc(F)cn2)CC1 [Example 196, 1,1,1,3,3,3-Hexafluoropropan-2-yl 1-(2,2-difluoro-2-(5-fluoropyrimidin-2-yl)acetyl)-1,8-diazaspiro [4.5]decane-8-carboxylate]
> 75	> 75	> 75	–	–	–	O=C(OC(C(F)(F)F)C(F)(F)F)N1CCC2(CCCN2C(=O)c2cc3nccc(C(F)(F)F)n3n2)CC1 [Example 164, 1,1,1,3,3,3-Hexafluoropropan-2-yl 1-(7-(trifluoromethyl)pyrazolo[1,5-a]pyrimidine-2-carbonyl)-1,8-diazaspiro[4.5] decane-8-carboxylate]
> 75	> 75	> 75	–	–	–	O=C(OC(C(F)(F)F)C(F)(F)F)N1CCC2(CCCN2C(=O)c2nn3cccnc3c2Cl)CC1 [Example 157, 1,1,1,3,3,3-Hexafluoropropan-2-yl 1-(3-chloropyrazolo[1,5-a]pyrimidine-2-carbonyl)-1,8-diazaspiro[4.5] decane-8-carboxylate]
–	–	> 75	< 100	–	< 100	O=C(OC(C(F)(F)F)C(F)(F)F)N1CCC2(CCCN2C(=O)c2nc3ccccc3s2)CC1 [Example 75, 1,1,1,3,3,3-Hexafluoropropan-2-yl 1-(benzo[d]thiazole-2-carbonyl)-1,8-diazaspiro[4.5] decane-8-carboxylate]
–	> 75	> 75	–	–	–	Cc1nn(C)c(C(=O)N2CCCC23CCN(C(=O)OC(C(F)(F)F)C(F)(F)F)CC3)c1C#N [Example 19, 1,1,1,3,3,3-hexafluoropropan-2-yl 1-(4-cyano-1,3-dimethyl-1H-pyrazole-5-carbonyl)-1,8-diazaspiro[4.5]decane-8-carboxylate]
